According to publication PMC9049077, “Unveiling the anti-cancer mechanism for half-sandwich and cyclometalated Ir(III)-based complexes with functionalized α-lipoic acid” (RSC Advances, 2020):
Where two headings read alike, the source gives them in different places.

Columns and labels:
[1] = reported value; cited from earlier work
A549 cells = details: cited from earlier work
[2] = system: A549 cells (human lung carcinoma); assay: MTT cytotoxicity assay, A549; format: cell-based
Procedure: (§1) The α-lipoic acid (LA) and the functionalized N^∧N-LA ligand were also evaluated for comparison. […]
(§2) Cell lines and culture conditions
(§3) A549, A549R, MCF-7, A2780, HeLa and LO2 cells were obtained from Experimental Animal Center of Sun Yat-Sen University (Guangzhou, China). Cells were routinely cultured in DMEM (Dulbecco’s modified Eagle’s medium, Gibco BRL) or RPMI 1640 (Roswell Park Memorial Institute medium 1640, Gibco BRL) medium containing 10% FBS (fetal bovine serum, Gibco BRL), 100 μg/mL streptomycin, and 100 U/mL penicillin (Gibco BRL). The cells were cultured in tissue culture flasks in a humidified incubator (BB 150 CO2 incubator, Thermo Fisher Scientific, USA), which provided an atmosphere of 5% CO2 and 95% air at a constant temperature of 37 °C. Cisplatin-resistant A549R […]
(§4) cells were cultured in RPMI 1640 with additional cisplatin to maintain the drug resistance.
(§5) Cytotoxicity assay (MTT assay)
(§6) The cytotoxicity of LA, N^N-LA and complexes synthesized towards various cancer cell lines was determined by MTT assay. After plating 5000 cells per well in 96-well plates, the cells were pre-incubated in drug-free media for 24 h at 37 °C to grow to confluence. The complexes were dissolved in DMSO (1%, v/v) just before the experiments, and diluted with fresh media immediately. Then, cells […]
(§7) that, 20 μL of MTT solution (5 mg/mL) was added to each well, and the plates were incubated for an additional 4 h. The medium was carefully removed and 150 μL DMSO was added per well. The plates were incubated for 10 min with shaking. The absorbance at 595 nm was measured using a microplate reader (LabServ K3, Part of Thermo Fisher Scientific, USA). Each well was triplicated to gain the mean values. IC 50 values quoted are mean ± SEM. […]

[3] = system: A549R cells (cisplatin-resistant A549); assay: MTT cytotoxicity assay, A549R; format: cell-based, human
Procedure: as §1, §2, §3, §4, §5
(§8) The cytotoxicity of LA, N^N-LA and complexes synthesized towards various cancer cell lines was determined by MTT assay. After plating 5000 cells per well in 96-well plates, the cells were pre-incubated in drug-free media for 24 h at 37 °C to grow to confluence. The complexes were dissolved in DMSO (1%, v/v) just before the experiments, and diluted with fresh media immediately. Then, cells were incubated with a series of different concentrations of the tested complexes for 44 h at 37 °C. After that, 20 μL of MTT solution (5 mg/mL) was added to each well, and the plates were incubated for an additional 4 h. The medium was carefully removed and 150 μL DMSO was added per well. The plates were incubated for 10 min with shaking. The absorbance at 595 nm was measured using a microplate reader (LabServ K3, Part of Thermo Fisher Scientific, USA). Each well was triplicated to gain the mean values. IC 50 values quoted are mean ± SEM. […]

[4] = system: MCF-7 cells (human breast carcinoma); assay: MTT cytotoxicity assay, MCF-7; format: cell-based
Procedure: as §1, §2, §3, §4, §5, §8

[5] = system: A2780 cells (epithelial ovarian carcinoma); assay: MTT cytotoxicity assay, A2780; format: cell-based
Procedure: as §1, §2, §3, §4, §5, §8

[6] = system: HeLa cells (human cervical carcinoma); assay: MTT cytotoxicity assay, HeLa; format: cell-based
Procedure: as §1, §2, §3, §4, §5, §6, §7

[7] = system: LO2 cells (human normal liver); assay: MTT cytotoxicity assay, LO2; format: cell-based
Procedure: as §1, §2, §3, §4, §5, §8

[8] = system: A549 cells (human lung carcinoma); design: method as in earlier work; details: 24 h incubation; ref 29 (supplementary reference 9); cited from earlier work
[9] = system: MCF-7 cells (human breast carcinoma); design: method as in earlier work; details: 24 h incubation; ref 29 (supplementary reference 9); cited from earlier work
[10] = system: MCF-7 cells (human breast carcinoma); assay: MTT cytotoxicity assay, MCF-7; format: cell-based; details: 24 h incubation
[11] = system: HeLa cells (human cervical carcinoma); design: method as in earlier work; details: 24 h incubation; ref 29 (supplementary reference 9); cited from earlier work
tested cancer cell lines = assay: MTT cytotoxicity assay, summary over the tested cell lines; format: cell-based; details: Homo sapiens, 48 h, read-out: IC50 over all tested cancer cell lines
Procedure: as §1, §2, §3, §4, §5
The cytotoxicity of LA, N^N-LA and complexes synthesized towards various cancer cell lines was determined by MTT assay. After plating 5000 cells per well in 96-well plates, the cells were pre-incubated in drug-free media for 24 h at 37 °C to grow to confluence. […] The absorbance at 595 nm was measured using a microplate reader (LabServ K3, Part of Thermo Fisher Scientific, USA). […]

[12] = Homo sapiens, A549, 48 h incubation

C(=NC(c1ccccc1)(c1ccccc1)c1ccccc1)c1ccccn1.Cc1c(C)c(C)[c-](C)c1C.F[P-](F)(F)(F)(F)F.[Cl-].[Ir+3] [[(η^5-Cp*)Ir(N^∧N)Cl]PF6, [(η^5-Cp*)Ir(N^∧N)Cl]PF6 (N^∧N = (triphenylmethyl)(pyridine-2-ylmethylene)amine)]
Hydrolysis rate constant [1]: 0.0084 min⁻¹ | Cellular uptake in A549 cells (A549 cells): 4.5 ng per 10^6 cells

Cc1ccnc(-c2cc(CNC(=O)CCCCC3CCSS3)ccn2)c1 (stereo not drawn) [N^∧N-LA]
IC50 ([2]; 48 h incubation): > 200 µM | IC50 ([3]; 48 h incubation): > 200 µM | IC50 ([4]; 48 h incubation): 139 ± 2.2 µM | IC50 ([5]; 48 h incubation): 84.5 ± 4.1 µM | IC50 ([6]; 48 h incubation): 67.5 ± 5 µM | IC50 ([7]; 48 h incubation): 96 ± 6.7 µM

N.N.[Cl][Pt][Cl] [cis-Pt, cisplatin, reference compound]
IC50 ([2]; 24 h incubation): 22.4 ± 1.5 µM | IC50 ([2]; 48 h incubation): 10.5 ± 0.63 µM | IC50 ([3]; 48 h incubation): 17.9 ± 0.77 µM | IC50 ([4]; 48 h incubation): 8.7 ± 0.57 µM | IC50 ([5]; 48 h incubation): 4.32 ± 0.25 µM | IC50 ([6]; 24 h incubation): 17.9 ± 0.47 µM | IC50 ([6]; 48 h incubation): 7.59 ± 0.46 µM | IC50 ([7]; 48 h incubation): 3.97 ± 0.25 µM | IC50 [8]: 38.6 ± 0.9 µM | IC50 [9]: 31.4 ± 3 µM | IC50 [10]: 23.5 ± 0.82 µM | IC50 [11]: 20.2 ± 1.8 µM

O=C(O)CCCCC1CCSS1 (stereo not drawn) [LA, α-lipoic acid]
IC50 [2, 12]: > 200 µM | IC50 [3, 12]: > 200 µM | IC50 ([4]; Homo sapiens, MCF7, 48 h incubation): > 200 µM | IC50 ([5]; Homo sapiens, A2780, 48 h incubation): > 200 µM | IC50 ([6]; Homo sapiens, HeLa, 48 h incubation): > 200 µM | IC50 ([7]; Homo sapiens, L02, 48 h incubation): > 200 µM | IC50 (tested cancer cell lines): > 200 µM

Cc1ccnc(-c2cc(CN)ccn2)c1.F[P-](F)(F)(F)(F)F.[Ir+3].[c-]1ccccc1-c1ccccn1.[c-]1ccccc1-c1ccccn1 [Ir-NH2, [Ir(C^∧N)2(N^∧N-NH2)]PF6]
IC50 ([2]; 48 h incubation): 11.2 ± 0.65 µM | IC50 ([3]; 48 h incubation): 19 ± 0.59 µM | IC50 ([4]; 48 h incubation): 11.6 ± 0.48 µM | IC50 ([5]; 48 h incubation): 8.08 ± 0.2 µM | IC50 ([6]; 48 h incubation): 21 ± 0.95 µM | IC50 ([7]; 48 h incubation): 8.97 ± 0.55 µM
